Laboratory results as given in US11970576B2, “Beta-peptido sugar-copolymer” (NANYANG TECHNOLOGICAL UNIVERSITY, priority 2017, dated 2024).
Converted amounts (≈) assume the structure as drawn. Where a SMILES comes first, the peptide text is derived from it.

Key:
human red blood cells = assay: Erythrocyte compatibility assay (hemolysis)
Experimental: Toxicity towards mammalian cells was another vital factor for bio-applications. […] Erythrocyte compatibility assay calculating the lysis of human red blood cells (HC10, concentration of polymers causing 10% human red blood cells lysed) was performed to characterize the in vitro biocompatibility.

S. aureus (ATCC 29213) = assay type: cell-based
Experimental: (§1) Antimicrobial activity of block-like copolymers PDGu(x)-b-PBLK(y) against a panel of bacteria including both Gram-positive (S. aureus and B. subtilis) and Gram-negative (E. coli) in terms of minimal inhibition concentration (MIC) were tested. […] The activity was decreased with the increase of sugar ratio. This is reasonable when considering the killing domains became less.

[1] = system: methicillin-resistant S. aureus (BAA-40); assay type: cell-based
Experimental: as §1

E. coli (ATCC 8739) = assay type: cell-based
Experimental: as §1

MRSA USA300 = assay: In vivo murine excision wound model; set-up: species or system Staphylococcus aureus
Source text: Staphylococcus aureus is the most common cause for skin and soft tissue infections (SSTIs). Among those, up to three quarter are caused by community-associated MRSA (CA-MRSA). MRSA USA300 is a significant CA-MRSA pathogen in the US. According to Centers for Disease Control and Prevention of US, 212 out of 218 MRSA isolates were type USA300. To further test the in vivo efficacy of PDGu(10)-b-PBLK(10) against the clinically significant pathogen MRSA USA300, a mice wound excision model was adopted using 8 weeks female C57BL6 mice. […] This could be attributed to the excellent antibacterial efficacy of the β-peptido sugar-copolymer in vivo.
The in vivo efficacy of PDGu(10)-b-PBLK(10) was further tested against MRSA USA 300 with a murine excision wound model using two infection durations with treatments applied either 4 hour or 24 hour post infection. For treatment applied 4 hour post infection, the β-peptido sugar-copolymer achieves a log reduction of 4.1 (FIG. 8a), which is slightly better than vancomycin, which has a log reduction of 3.7. […] In contrast, vancomycin treatment only achieves 2.0 log reduction of the bacteria burden at the wound site (p≤0.01). The excellent in vivo antibacterial efficacy of PDGu(10)-b-PBLK(10) may be correlated to its outstanding in vitro killing kinetics and anti-biofilm bacteria property.
Female C57BL6 mice (Invivos, Singapore) aged 8 weeks were used for excision wound model to evaluate in vivo antimicrobial efficacy of the β-peptido sugar-copolymer. All mice were housed on a 12 hour light-dark cycle at room temperature for one week prior to the experiment. Mice (n=7 per group) were anesthetized using isoflurane and hair from the back was removed with a shaver and sterile scalpel blade. The shaved area was further sterilized using 70% ethanol and a 5 mm diameter excision wound was created using a biopsy punch. In t=4 hour post infection model, 2.5 μL MRSA USA300 in PBS suspension (5×10^5 CFU/mL) was added to wound site and covered by Tegaderm (3M™) to protect from contamination. […]

| Molecule | HC10 RBC (concentration causing 10% human red blood cells lysed) (human red blood cells) [µg/mL] | MIC SA 29213 (S. aureus (ATCC 29213)) [µg/mL] | MIC MRSA [1] [µg/mL] | MIC E. coli (E. coli (ATCC 8739)) [µg/mL] | in vivo activity compared with the β-peptido sugar-copolymer (MRSA USA300; mice wound excision model, MRSA USA300) | log reduction of MRSA USA300 (MRSA USA300; treatment applied 4 hour post infection, single dose 2.5 mg/kg (FIG. 8a)) [log] | log reduction of total bacteria count (MRSA USA300; treatment initiated 24 hour post infection, three times with 4-hour interval, 2.5 mg/kg (FIG. 8b)) [log] |
| --- | --- | --- | --- | --- | --- | --- | --- |
| CC[C@H](C)[C@H](NC(=O)CN)C(=O)NCC(=O)N[C@@H](CCCCN)C(=O)N[C@@H](Cc1ccccc1)C(=O)N[C@@H](CC(C)C)C(=O)N[C@@H](Cc1c[nH]cn1)C(=O)N[C@@H](CO)C(=O)N[C@@H](C)C(=O)N[C@@H](CCCCN)C(=O)N[C@@H](CCCCN)C(=O)N[C@@H](Cc1ccccc1)C(=O)NCC(=O)N[C@@H](CCCCN)C(=O)N[C@@H](C)C(=O)N[C@@H](Cc1ccccc1)C(=O)N[C@H](C(=O)NCC(=O)N[C@@H](CCC(=O)O)C(=O)N[C@H](C(=O)N[C@@H](CCSC)C(=O)N[C@@H](CC(N)=O)C(=O)N[C@@H](CO)C(=O)O)[C@@H](C)CC)C(C)C [Magainin 2] (H-GIGKFLHSAKKFGKAFVGEIMNS-OH) | >500 | >512 | >512 | 64 (≈ 25.9 µM) |  |  |  |
| CC[C@H](C)[C@H](NC(=O)CN)C(=O)NCC(=O)N[C@@H](C)C(=O)N[C@H](C(=O)N[C@@H](CC(C)C)C(=O)N[C@@H](CCCCN)C(=O)N[C@H](C(=O)N[C@@H](CC(C)C)C(=O)N[C@H](C(=O)N[C@H](C(=O)NCC(=O)N[C@@H](CC(C)C)C(=O)N1CCC[C@H]1C(=O)N[C@@H](C)C(=O)N[C@@H](CC(C)C)C(=O)N[C@H](C(=O)N[C@@H](CO)C(=O)N[C@@H](Cc1c[nH]c2ccccc12)C(=O)N[C@H](C(=O)N[C@@H](CCCCN)C(=O)N[C@@H](CCCNC(=N)N)C(=O)N[C@@H](CCCCN)C(=O)N[C@@H](CCCNC(=N)N)C(=O)N[C@@H](CCC(N)=O)C(=O)N[C@@H](CCC(N)=O)C(N)=O)[C@@H](C)CC)[C@@H](C)CC)[C@@H](C)O)[C@@H](C)O)C(C)C)C(C)C [Melittin] | 8 |  |  |  |  |  |  |
| CN[C@H](CC(C)C)C(=O)N[C@H]1C(=O)N[C@@H](CC(N)=O)C(=O)N[C@H]2C(=O)N[C@H]3C(=O)N[C@H](C(=O)N[C@H](C(=O)O)c4cc(O)cc(O)c4-c4cc3ccc4O)[C@H](O)c3ccc(c(Cl)c3)Oc3cc2cc(c3O[C@@H]2O[C@H](CO)[C@@H](O)[C@H](O)[C@H]2O[C@H]2C[C@](C)(N)[C@H](O)[C@H](C)O2)Oc2ccc(cc2Cl)[C@H]1O [vancomycin] |  |  |  |  | does not show superior activity | 3.7 | 2.0 |
| Polymyxin B | >2500 | 32 | 64 | 2 |  |  |  |
| CC[C@H](C)[C@H](NC(=O)[C@H](CCCCN)NC(=O)[C@H](CCC(=O)O)NC(=O)[C@H](CCCCN)NC(=O)[C@H](CO)NC(=O)[C@H](CCCCN)NC(=O)[C@H](CCCNC(=N)N)NC(=O)[C@H](Cc1ccccc1)NC(=O)[C@H](Cc1ccccc1)NC(=O)[C@H](CC(=O)O)NC(=O)CNC(=O)[C@H](CC(C)C)NC(=O)[C@@H](N)CC(C)C)C(=O)NCC(=O)N[C@@H](CCCCN)C(=O)N[C@@H](CCC(=O)O)C(=O)N[C@@H](Cc1ccccc1)C(=O)N[C@@H](CCCCN)C(=O)N[C@@H](CCCNC(=N)N)C(=O)N[C@H](C(=O)N[C@H](C(=O)N[C@@H](CCC(N)=O)C(=O)N[C@@H](CCCNC(=N)N)C(=O)N[C@H](C(=O)N[C@@H](CCCCN)C(=O)N[C@@H](CC(=O)O)C(=O)N[C@@H](Cc1ccccc1)C(=O)N[C@@H](CC(C)C)C(=O)N[C@@H](CCCNC(=N)N)C(=O)N[C@@H](CC(N)=O)C(=O)N[C@@H](CC(C)C)C(=O)N[C@H](C(=O)N1CCC[C@H]1C(=O)N[C@@H](CCCNC(=N)N)C(=O)N[C@H](C(=O)N[C@@H](CCC(=O)O)C(=O)N[C@@H](CO)C(=O)O)[C@@H](C)O)C(C)C)[C@@H](C)CC)C(C)C)[C@@H](C)CC [LL37] |  |  | >512 |  |  |  |  |
